In US12446584B2, “Termiticide composition and methods for treating termites” (ADAMA MAKHTESHIM LTD., priority 2013, dated 2025):
Where two headings read alike, the source gives them in different places.

Experiments:
[1] = tested on: Eastern Subterranean Reticulitermes flavipes termites; assay: Transfer effects among nestmates (donor/recipient Petri dish arenas); assay type: in vivo; details: donors treated with 50 ppm; for mortality at 50 ppm: Reticulitermes flavipes
Protocol: (§1) The purpose of this study was to determine whether there is transference of […] among nestmates of subterranean termites. Arenas for this study consisted of a 15 cm Petri dish. […] Donor and untreated marked control termites were marked using RustOleum® Marking Paint, using methodology described by Keefer et al. 2012.
(§2) Two untreated soldier termites for each species were added to each arena to simulate colony dynamics. Post-treatment observations for mortality were made at 4 h and then daily through day 7.

[2] = tested on: Formosan Coptotermes formosanus termites; assay: as above; assay type: in vivo; details: donors treated with 50 ppm; for mortality at 50 ppm: Coptotermes formosanus
Protocol: as §1, §2

[3] = 144 h, donor:recipient ratio 10:10, 6 d, read-out: Mean total % mortality of donors and recipients
[4] = 144 h, donor:recipient ratio 15:5, 6 d, read-out: Mean total % mortality of donors and recipients
[5] = 168 h, by treatment (all ratios), 7 d, read-out: Mean % mortality of donors and recipients
[6] = 168 h, donor:recipient ratio 1:19, 7 d, read-out: Mean total % mortality of donors and recipients
[7] = 168 h, donor:recipient ratio 5:15, 7 d, read-out: Mean total % mortality of donors and recipients
[8] = 168 h, donor:recipient ratio 10:10, 7 d, read-out: Mean total % mortality of donors and recipients
[9] = 168 h, donor:recipient ratio 15:5, 7 d, read-out: Mean total % mortality of donors and recipients

SMILES: O=[N+]([O-])NC1=NCCN1Cc1ccc(Cl)nc1 [Imidacloprid, N-[1-[(6-Chloro-3-pyridyl)methyl]-4,5-dihydroimidazol-2-yl]nitramide]
- mortality at 50 ppm [1, 3]: 100%
- mortality at 50 ppm [1, 4]: 100%
- mortality at 50 ppm [1, 5]: 100%
- mortality at 50 ppm [1, 6]: 100%
- mortality at 50 ppm [1, 7]: 100%
- mortality at 50 ppm [1, 8]: 100%
- mortality at 50 ppm [1, 9]: 100%
- Mean % mortality of donors and recipients ([1]; by treatment (all ratios), 4 h): 27.18 a %
- mortality at 50 ppm ([2]; 4 h, by treatment (all ratios), 4 h, read-out: Mean % mortality of donors and recipients): 9%
- mortality at 50 ppm ([2]; 4 h, donor:recipient ratio 1:19, 4 h, read-out: Mean total % mortality of donors and recipients): 0%
- mortality at 50 ppm ([2]; 4 h, donor:recipient ratio 5:15, 4 h, read-out: Mean total % mortality of donors and recipients): 3.75%
- mortality at 50 ppm ([2]; 4 h, donor:recipient ratio 10:10, 4 h, read-out: Mean total % mortality of donors and recipients): 17.5%
- mortality at 50 ppm ([2]; 4 h, donor:recipient ratio 15:5, 4 h, read-out: Mean total % mortality of donors and recipients): 17.5%
- mortality at 50 ppm ([2]; 24 h, by treatment (all ratios), 1 d, read-out: Mean % mortality of donors and recipients): 32.5%
- mortality at 50 ppm ([2]; 24 h, donor:recipient ratio 1:19, 1 d, read-out: Mean total % mortality of donors and recipients): 1.25%
- mortality at 50 ppm ([2]; 24 h, donor:recipient ratio 5:15, 1 d, read-out: Mean total % mortality of donors and recipients): 12.5%
- mortality at 50 ppm ([2]; 24 h, donor:recipient ratio 10:10, 1 d, read-out: Mean total % mortality of donors and recipients): 85%
- mortality at 50 ppm ([2]; 24 h, donor:recipient ratio 15:5, 1 d, read-out: Mean total % mortality of donors and recipients): 31.2%
- mortality at 50 ppm ([2]; 48 h, by treatment (all ratios), 2 d, read-out: Mean % mortality of donors and recipients): 52.5%
- mortality at 50 ppm ([2]; 48 h, donor:recipient ratio 1:19, 2 d, read-out: Mean total % mortality of donors and recipients): 5%
- mortality at 50 ppm ([2]; 48 h, donor:recipient ratio 5:15, 2 d, read-out: Mean total % mortality of donors and recipients): 22.5%
- mortality at 50 ppm ([2]; 48 h, donor:recipient ratio 10:10, 2 d, read-out: Mean total % mortality of donors and recipients): 96.2%
- mortality at 50 ppm ([2]; 48 h, donor:recipient ratio 15:5, 2 d, read-out: Mean total % mortality of donors and recipients): 86.2%
- mortality at 50 ppm ([2]; 72 h, by treatment (all ratios), 3 d, read-out: Mean % mortality of donors and recipients): 67.2%
- mortality at 50 ppm ([2]; 72 h, donor:recipient ratio 1:19, 3 d, read-out: Mean total % mortality of donors and recipients): 33.8%
- mortality at 50 ppm ([2]; 72 h, donor:recipient ratio 5:15, 3 d, read-out: Mean total % mortality of donors and recipients): 37.5%
- mortality at 50 ppm ([2]; 72 h, donor:recipient ratio 10:10, 3 d, read-out: Mean total % mortality of donors and recipients): 100%
- mortality at 50 ppm ([2]; 72 h, donor:recipient ratio 15:5, 3 d, read-out: Mean total % mortality of donors and recipients): 100%
- mortality at 50 ppm ([2]; 96 h, by treatment (all ratios), 4 d, read-out: Mean % mortality of donors and recipients): 76.2%
- mortality at 50 ppm ([2]; 96 h, donor:recipient ratio 1:19, 4 d, read-out: Mean total % mortality of donors and recipients): 72.5%
- mortality at 50 ppm ([2]; 96 h, donor:recipient ratio 5:15, 4 d, read-out: Mean total % mortality of donors and recipients): 55%
- mortality at 50 ppm ([2]; 96 h, donor:recipient ratio 10:10, 4 d, read-out: Mean total % mortality of donors and recipients): 100%
- mortality at 50 ppm ([2]; 96 h, donor:recipient ratio 15:5, 4 d, read-out: Mean total % mortality of donors and recipients): 100%
- mortality at 50 ppm ([2]; 120 h, by treatment (all ratios), 5 d, read-out: Mean % mortality of donors and recipients): 87.5%
- mortality at 50 ppm ([2]; 120 h, donor:recipient ratio 1:19, 5 d, read-out: Mean total % mortality of donors and recipients): 82.5%
- mortality at 50 ppm ([2]; 120 h, donor:recipient ratio 5:15, 5 d, read-out: Mean total % mortality of donors and recipients): 67.5%
- mortality at 50 ppm ([2]; 120 h, donor:recipient ratio 10:10, 5 d, read-out: Mean total % mortality of donors and recipients): 100%
- mortality at 50 ppm ([2]; 120 h, donor:recipient ratio 15:5, 5 d, read-out: Mean total % mortality of donors and recipients): 100%
- mortality at 50 ppm ([2]; 144 h, by treatment (all ratios), 6 d, read-out: Mean % mortality of donors and recipients): 96.2%
- mortality at 50 ppm ([2]; 144 h, donor:recipient ratio 1:19, 6 d, read-out: Mean total % mortality of donors and recipients): 93.8%
- mortality at 50 ppm ([2]; 144 h, donor:recipient ratio 5:15, 6 d, read-out: Mean total % mortality of donors and recipients): 91.2%
- mortality at 50 ppm [2, 3]: 100%
- mortality at 50 ppm [2, 4]: 100%
- mortality at 50 ppm [2, 5]: 97%
- mortality at 50 ppm [2, 6]: 95%
- mortality at 50 ppm [2, 7]: 96.2%
- mortality at 50 ppm [2, 8]: 100%
- mortality at 50 ppm [2, 9]: 100%
- Mean % mortality of donors and recipients ([2]; by treatment (all ratios), 4 h): 9.68 b %
- Mean % mortality of donors and recipients ([2]; by treatment (all ratios), 7 d): 97.81 a %
